# In patent publication US8003124B2, “Sustained release implants and methods for subretinal delivery of bioactive agents to treat or prevent retinal disease” (Surmodics, Inc., priority 2005, dated 2011):
# How the values were obtained:
# [1] = three days following an injection; cited from earlier work
# [2] = In vivo elution: TA by HPLC in eye tissues, aqueous and blood after subretinal PCL/TA 60:40 implant; conditions: four weeks after subretinal PCL/TA 60:40 implant, rabbit
# rabbit eye = conditions: in vivo
# Protocol: Pupils were fully dilated before implantation with 1 drop each of cyclopentolate hydrochloride 1% (Bausch & Lomb, Rochester, N.Y.) and phenylephrine hydrochloride 5% (Bausch & Lomb). […] A periocular surgical prep was performed by swabbing the area using a 1:10 dilution of povidone iodine in saline. The surface of the eye was prepped with a 1:20 dilution of povidone iodine in saline. The rabbit was positioned under the operating microscope and draped. A wire lid speculum was placed.
# A two-port core vitrectomy was performed, with illumination provided by the operating microscope (Carl Zeiss Ophthalmic Systems, Inc.). […] The feathered shape and semi-rigid structure of the implant allowed easy insertion. […] At the conclusion of surgery, a subconjunctival injection of antibiotic, 0.1 cc of 40 mg/ml gentamycin (Phoenix Scientific, St. Joseph, Mo.) and 0.1 cc of 2 mg/ml dexamethasone (Phoenix Scientific) was administered away from the surgery site. […]
# Complete ophthalmic examinations using indirect ophthalmoscopy and a 20-diopter lens (Vantage Indirect Ophthalmoscope, Keeler Ltd., Windsor, England) were performed at baseline and 1, 2, and 4 weeks postoperatively. […] The lens was inspected for cataract formation and further evaluated with respect to any lens touch that may have occurred during the implantation.
structure (smiles),measurement,setting,value
C[C@]12C=CC(=O)C=C1CC[C@H]1[C@@H]3C[C@@H](O)[C@](O)(C(=O)CO)[C@@]3(C)C[C@H](O)[C@@]12F [triamcinolone],"share of the triamcinolone present in the vitreous associated with other tissues including the retina, pigment epithelium, and sclera",[1],less than 1%
"CC1(C)O[C@@H]2C[C@H]3[C@@H]4CCC5=CC(=O)C=C[C@]5(C)[C@@]4(F)[C@@H](O)C[C@]3(C)[C@]2(C(=O)CO)O1 [TA, Triamcinolone acetonide]",TA in the anterior structures (HPLC),[2],not detected
same,TA in the blood (HPLC),[2],not detected
same,TA in the posterior tissue samples (HPLC),"[2]; qualitative, FIG. 9",confirmed the presence
CO[C@H]1C[C@@H]2CC[C@@H](C)[C@@](O)(O2)C(=O)C(=O)N2CCCC[C@H]2C(=O)O[C@H]([C@H](C)C[C@@H]2CC[C@@H](O)[C@H](OC)C2)CC(=O)[C@H](C)/C=C(\C)[C@@H](O)[C@@H](OC)C(=O)[C@H](C)C[C@H](C)/C=C/C=C/C=C/1C [rapamycin],"biocompatibility / toxicity, clinical examinations",rabbit eye,may be toxic to the rabbit eye at the current doses
